In ChEMBL document CHEMBL5365420, “Kinetics, Thermodynamics, and Structural Effects of Quinoline-2-Carboxylates, Zinc-Binding Inhibitors of New Delhi Metallo-β-lactamase-1 Re-sensitizing Multidrug-Resistant Bacteria for Carbapenems” (J Med Chem, 2023):

Experiments:
Escherichia coli [1] = test: Antibacterial activity against clinical isolate Escherichia coli K12 J53-ST10 618/15 expressing blaNDM-1 assessed as meropenem MIC at 40 uM measured after 20 hrs by broth microdilution assay (reference value: 10.65 mg/L); format: functional
Escherichia coli [2] = test: Antibacterial activity against clinical isolate Escherichia coli K12 J53-ST10 696/17 expressing blaNDM-1 co-expressing blaCMY-4 assessed as meropenem MIC at 80 uM measured after 20 hrs by broth microdilution assay (reference value: 21.3 mg/L); format: functional
Escherichia coli [3] = test: Antibacterial activity against clinical isolate Escherichia coli ST1012/10 expressing blaNDM-1 co-expressing blaTEM-1/blaCTX-M-15/blaOXA-1 and blaOXA-2 assessed as meropenem MIC at 80 uM measured after 20 hrs by broth microdilution assay (reference value: 21.3 mg/L); format: functional
[4] = biological target: Carbonic anhydrase 2 (Homo sapiens) (UniProt P00918); test: Inhibition of human CA2 at 10 uM using pNPA as substrate preincubated for 15 mins followed by substrate by absorbance based analysis relative to control
[5] = Inhibition of VIM-2 (unknown origin) incubated for 15 mins by absorbance based microplate reader analysis; parameters: species or system Bacteria
Klebsiella pneumoniae [6] = test: Antibacterial activity against clinical isolate Klebsiella pneumoniae ST23213/19 expressing blaNDM-1 co-expressing blaOXA-48/blaSHV-11/blaCTX-M-15 and blaOXA-1 assessed as meropenem MIC at 80 uM measured after 20 hrs by broth microdilution assay (reference value: 21.3 mg/L); format: functional
Klebsiella pneumoniae [7] = test: Antibacterial activity against clinical isolate Klebsiella pneumoniae ST1493/10 expressing blaNDM-1 co-expressing blaCMY-2like/blaTEM-1/blaCTX-M-15/blaSHV-28/blaOXA-1 and blaOXA-9 assessed as meropenem MIC at 80 uM measured after 20 hrs by broth microdilution assay (reference value: 21.3 mg/L); format: functional
Klebsiella pneumoniae [8] = test: Antibacterial activity against clinical isolate Klebsiella pneumoniae 50/11 expressing blaNDM-1 co-expressing blaTEM-1/blaSHV-28/blaTEM-1/blaCTX-M-15 and blaOXA-1 assessed as meropenem MIC at 80 uM measured after 20 hrs by broth microdilution assay (reference value: 21.3 mg/L); format: functional
[9] = Inhibition of GIM1 (unknown origin) incubated for 15 mins by absorbance based microplate reader analysis; parameters: species or system Bacteria
[10] = Selectivity ratio of Ki for human recombinant MMP-2 CD to Ki for C-terminal 6His-tagged full length NDM-1 (unknown origin)
Escherichia coli [11] = test: Antibacterial activity against clinical isolate Escherichia coli K12 J53-ST10 684/18 expressing blaNDM-1 co-expressing blaCMY-2 and blaOXA-10 assessed as meropenem MIC at 40 uM measured after 20 hrs by broth microdilution assay (reference value: 10.65 mg/L); format: functional
Acinetobacter baumannii [12] = test: Antibacterial activity against clinical isolate Acinetobacter baumannii IC 19/09 expressing blaNDM-1 co-expressing blaOXA-64 assessed as meropenem MIC at 80 uM measured after 20 hrs by broth microdilution assay (reference value: 21.3 mg/L); format: functional
Klebsiella pneumoniae [13] = test: Antibacterial activity against clinical isolate Klebsiella pneumoniae ST1493/10 expressing blaNDM-1 co-expressing blaCMY-2like/blaTEM-1/blaCTX-M-15/blaSHV-28/blaOXA-1 and blaOXA-9 assessed as meropenem MIC at 40 uM measured after 20 hrs by broth microdilution assay (reference value: 10.65 mg/L); format: functional
Klebsiella pneumoniae [14] = test: Antibacterial activity against clinical isolate Klebsiella pneumoniae 50/20 expressing blaNDM-5 co-expressing blaTEM-1 and blaSHV-1 assessed as meropenem MIC at 40 uM measured after 20 hrs by broth microdilution assay (reference value: 10.65 mg/L); format: functional
Escherichia coli [15] = test: Antibacterial activity against clinical isolate Escherichia coli K12 J53-ST10 684/18 expressing blaNDM-1 co-expressing blaCMY-2 and blaOXA-10 assessed as meropenem MIC at 80 uM measured after 20 hrs by broth microdilution assay (reference value: 21.3 mg/L); format: functional
Escherichia coli [16] = test: Antibacterial activity against clinical isolate Escherichia coli ST1012/10 expressing blaNDM-1 co-expressing blaTEM-1/blaCTX-M-15/blaOXA-1 and blaOXA-2 assessed as meropenem MIC at 40 uM measured after 20 hrs by broth microdilution assay (reference value: 10.65 mg/L); format: functional
Acinetobacter baumannii [17] = test: Antibacterial activity against clinical isolate Acinetobacter baumannii IC 19/09 expressing blaNDM-1 co-expressing blaOXA-64 assessed as meropenem MIC at 40 uM measured after 20 hrs by broth microdilution assay (reference value: 10.65 mg/L); format: functional
Escherichia coli [18] = test: Antibacterial activity against clinical isolate Escherichia coli K12 J53-ST10 699/15 expressing blaNDM-1 assessed as meropenem MIC at 40 uM measured after 20 hrs by broth microdilution assay (reference value: 10.65 mg/L); format: functional
Escherichia coli [19] = test: Antibacterial activity against clinical isolate Escherichia coli K12 J53-ST10 696/17 expressing blaNDM-1 co-expressing blaCMY-4 assessed as meropenem MIC at 40 uM measured after 20 hrs by broth microdilution assay (reference value: 10.65 mg/L); format: functional
Klebsiella pneumoniae [20] = test: Antibacterial activity against clinical isolate Klebsiella pneumoniae 50/11 expressing blaNDM-1 co-expressing blaTEM-1/blaSHV-28/blaTEM-1/blaCTX-M-15 and blaOXA-1 assessed as meropenem MIC at 40 uM measured after 20 hrs by broth microdilution assay (reference value: 10.65 mg/L); format: functional
[21] = biological target: Histone deacetylase 1 (Homo sapiens) (UniProt Q13547); test: Inhibition of C-terminal 6His/FLAG-tagged human recombinant full-length HDAC1 (1 to 482(end) residues) at 10 uM using Boc-Lys-(Ac)-AMC as substrate incubated for 10 mins followed by substrate addition measured after 1 hr by fluorescence based analysis relative to control; settings: time 70.0 min
Sequence of Histone deacetylase 1 (Homo sapiens) (Q13547 whole entry): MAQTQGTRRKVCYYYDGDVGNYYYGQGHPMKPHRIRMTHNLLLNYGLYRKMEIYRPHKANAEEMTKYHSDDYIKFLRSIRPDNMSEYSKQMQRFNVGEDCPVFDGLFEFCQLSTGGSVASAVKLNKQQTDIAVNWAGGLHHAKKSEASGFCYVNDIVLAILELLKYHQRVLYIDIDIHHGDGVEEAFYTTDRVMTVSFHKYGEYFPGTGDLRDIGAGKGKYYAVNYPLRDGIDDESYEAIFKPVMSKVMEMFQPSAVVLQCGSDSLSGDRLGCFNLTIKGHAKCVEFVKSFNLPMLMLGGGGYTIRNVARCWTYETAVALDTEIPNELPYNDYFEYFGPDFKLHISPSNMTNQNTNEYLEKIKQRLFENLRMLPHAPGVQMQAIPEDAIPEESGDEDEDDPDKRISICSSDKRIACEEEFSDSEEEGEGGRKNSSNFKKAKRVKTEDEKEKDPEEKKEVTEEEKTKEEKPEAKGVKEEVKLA

Escherichia coli [22] = test: Antibacterial activity against clinical isolate Escherichia coli K12 J53-ST10 618/15 expressing blaNDM-1 assessed as meropenem MIC at 80 uM measured after 20 hrs by broth microdilution assay (reference value: 21.3 mg/L); format: functional
Klebsiella pneumoniae [23] = test: Antibacterial activity against clinical isolate Klebsiella pneumoniae 50/20 expressing blaNDM-5 co-expressing blaTEM-1 and blaSHV-1 assessed as meropenem MIC at 80 uM measured after 20 hrs by broth microdilution assay (reference value: 21.3 mg/L); format: functional
[24] = biological target: Metallo-beta-lactamase type 2 (Bacteria, UniProt C7C422)
Sequence of Metallo-beta-lactamase type 2 (C7C422 whole entry): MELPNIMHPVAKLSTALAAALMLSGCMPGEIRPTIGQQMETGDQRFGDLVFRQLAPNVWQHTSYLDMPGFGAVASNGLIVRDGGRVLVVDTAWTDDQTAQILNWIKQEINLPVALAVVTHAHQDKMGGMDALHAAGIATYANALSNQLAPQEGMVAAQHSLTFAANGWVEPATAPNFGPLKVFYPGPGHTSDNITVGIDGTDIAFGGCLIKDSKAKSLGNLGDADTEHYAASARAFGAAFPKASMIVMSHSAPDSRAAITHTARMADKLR
Description: Inhibition of C-terminal 6His-tagged full length NDM-1 (unknown origin) expressed in Escherichia coli BL21-DE3 using nitrocefin as substrate incubated for 15 mins followed by substrate addition by absorbance based microplate reader analysis

Escherichia coli [25] = test: Antibacterial activity against clinical isolate Escherichia coli 371/12 expressing blaNDM-7 co-expressing blaCTX-M-15 and blaOXA-1 assessed as meropenem MIC at 40 uM measured after 20 hrs by broth microdilution assay (reference value: 10.65 mg/L); format: functional
Escherichia coli [26] = test: Antibacterial activity against clinical isolate Escherichia coli K12 J53-ST10 699/15 expressing blaNDM-1 assessed as meropenem MIC at 80 uM measured after 20 hrs by broth microdilution assay (reference value: 21.3 mg/L); format: functional
Escherichia coli [27] = test: Antibacterial activity against clinical isolate Escherichia coli 371/12 expressing blaNDM-7 co-expressing blaCTX-M-15 and blaOXA-1 assessed as meropenem MIC at 80 uM measured after 20 hrs by broth microdilution assay (reference value: 21.3 mg/L); format: functional
Klebsiella pneumoniae [28] = test: Antibacterial activity against clinical isolate Klebsiella pneumoniae 62/07 expressing blaVIM-19 co-expressing blaSHV-1/blaCTX-M-14 and blaCMY-4 assessed as meropenem MIC at 40 uM measured after 20 hrs by broth microdilution assay (reference value: 10.65 mg/L); format: functional
Klebsiella pneumoniae [29] = test: Antibacterial activity against clinical isolate Klebsiella pneumoniae ST23213/19 expressing blaNDM-1 co-expressing blaOXA-48/blaSHV-11/blaCTX-M-15 and blaOXA-1 assessed as meropenem MIC at 40 uM measured after 20 hrs by broth microdilution assay (reference value: 10.65 mg/L); format: functional
[30] = biological target: T1, 72 kDa type IV collagenase (Homo sapiens, UniProt P08253); test: Binding affinity to human recombinant MMP-2 CD assessed as inhibition constant using OMNIMMP as substrate incubated for 30 mins by fluorescence based analysis
Target sequence in this assay (P08253 whole entry): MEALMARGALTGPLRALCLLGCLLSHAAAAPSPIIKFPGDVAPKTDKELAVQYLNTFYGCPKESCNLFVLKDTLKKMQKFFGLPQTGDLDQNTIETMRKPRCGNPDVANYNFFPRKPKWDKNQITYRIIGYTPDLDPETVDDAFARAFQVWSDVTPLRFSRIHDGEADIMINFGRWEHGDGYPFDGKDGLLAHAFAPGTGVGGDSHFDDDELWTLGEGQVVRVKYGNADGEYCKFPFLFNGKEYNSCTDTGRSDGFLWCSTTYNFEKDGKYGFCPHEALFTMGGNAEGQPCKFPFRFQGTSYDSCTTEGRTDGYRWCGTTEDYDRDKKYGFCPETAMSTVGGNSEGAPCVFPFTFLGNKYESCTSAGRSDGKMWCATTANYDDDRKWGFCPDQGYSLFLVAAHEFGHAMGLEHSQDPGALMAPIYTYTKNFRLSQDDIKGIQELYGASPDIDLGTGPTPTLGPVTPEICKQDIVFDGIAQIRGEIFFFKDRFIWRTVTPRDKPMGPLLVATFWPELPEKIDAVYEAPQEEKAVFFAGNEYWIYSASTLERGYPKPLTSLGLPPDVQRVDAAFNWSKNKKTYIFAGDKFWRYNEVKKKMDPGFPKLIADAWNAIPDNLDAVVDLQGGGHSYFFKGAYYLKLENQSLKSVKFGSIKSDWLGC

[31] = Inhibition of IMP-1 (unknown origin) expressed in Escherichia coli BL21-DE3 incubated for 15 mins by absorbance based microplate reader analysis; parameters: species or system Bacteria
Klebsiella pneumoniae [32] = test: Antibacterial activity against clinical isolate Klebsiella pneumoniae 62/07 expressing blaVIM-19 co-expressing blaSHV-1/blaCTX-M-14 and blaCMY-4 assessed as meropenem MIC at 80 uM measured after 20 hrs by broth microdilution assay (reference value: 21.3 mg/L); format: functional
[33] = biological target: T1, 72 kDa type IV collagenase; test: Inhibition of human recombinant MMP-2 CD at 10 uM using OMNIMMP as substrate incubated for 30 mins by fluorescence based analysis relative to control
Target sequence in this assay (P08253 110-660 limits assumed): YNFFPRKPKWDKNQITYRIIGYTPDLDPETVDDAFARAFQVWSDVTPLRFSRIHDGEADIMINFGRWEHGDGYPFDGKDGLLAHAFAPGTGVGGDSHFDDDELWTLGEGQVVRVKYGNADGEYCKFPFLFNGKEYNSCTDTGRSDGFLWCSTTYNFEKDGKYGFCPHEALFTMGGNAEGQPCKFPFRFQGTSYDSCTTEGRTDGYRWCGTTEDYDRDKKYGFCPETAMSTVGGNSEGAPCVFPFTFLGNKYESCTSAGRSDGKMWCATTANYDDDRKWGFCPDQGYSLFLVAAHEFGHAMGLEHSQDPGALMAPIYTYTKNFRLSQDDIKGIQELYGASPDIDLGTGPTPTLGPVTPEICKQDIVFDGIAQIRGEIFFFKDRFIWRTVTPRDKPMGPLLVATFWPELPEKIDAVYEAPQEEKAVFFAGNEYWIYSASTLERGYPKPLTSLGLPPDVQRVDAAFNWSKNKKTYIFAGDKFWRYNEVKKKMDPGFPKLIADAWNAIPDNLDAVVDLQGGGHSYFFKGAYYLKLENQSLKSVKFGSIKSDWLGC

CS(=O)(=O)Nc1cccc2ccc(C(=O)O)nc12
MIC (Escherichia coli [1]): ≤ 0.125 µg/mL
MIC (Escherichia coli [2]): ≤ 0.125 µg/mL
MIC (Escherichia coli [3]): ≤ 0.125 µg/mL
inhibition [4]: < 5%
IC50 [5]: 0.79 µM
MIC (Klebsiella pneumoniae [6]): 16 µg/mL
MIC (Klebsiella pneumoniae [7]): 2 µg/mL
MIC (Klebsiella pneumoniae [8]): ≤ 0.125 µg/mL
IC50 [9]: 50.1 µM
Ratio Ki [10]: 5
MIC (Escherichia coli [11]): ≤ 0.125 µg/mL
MIC (Acinetobacter baumannii [12]): 2 µg/mL
MIC (Klebsiella pneumoniae [13]): 4 µg/mL
MIC (Klebsiella pneumoniae [14]): ≤ 0.125 µg/mL
MIC (Escherichia coli [15]): ≤ 0.125 µg/mL
MIC (Escherichia coli [16]): ≤ 0.125 µg/mL
MIC (Acinetobacter baumannii [17]): 4 µg/mL
MIC (Escherichia coli [18]): ≤ 0.125 µg/mL
MIC (Escherichia coli [19]): ≤ 0.125 µg/mL
MIC (Klebsiella pneumoniae [20]): ≤ 0.125 µg/mL
inhibition [21]: < 5%
MIC (Escherichia coli [22]): ≤ 0.125 µg/mL
MIC (Klebsiella pneumoniae [23]): ≤ 0.125 µg/mL
IC50 [24]: 1.64 µM
MIC (Escherichia coli [25]): 2 µg/mL
MIC (Escherichia coli [26]): ≤ 0.125 µg/mL
MIC (Escherichia coli [27]): 0.25 µg/mL
MIC (Klebsiella pneumoniae [28]): 1 µg/mL
MIC (Klebsiella pneumoniae [29]): 16 µg/mL
Ki [30]: 4.08 µM
IC50 [31]: 7.27 µM
MIC (Klebsiella pneumoniae [32]): 0.5 µg/mL
inhibition [33]: > 90%
